Measured values as given in patent US20240316165A1, “POLYNUCLEOTIDES ENCODING PROPIONYL-COA CARBOXYLASE ALPHA AND BETA SUBUNITS FOR THE TREATMENT OF PROPIONIC ACIDEMIA” (ModernaTX, Inc., priority 2021, published 2024).

Assay: tissue kinetics of the components of the drug product in rodents
Type: in vivo
Details: tissue (tissue with the maximum mean value; not named), read-out: maximum mean tissue terminal-phase elimination half-life (t1/2) (converted)
Protocol: An initial dosing interval of q3W is proposed on the basis of the duration of biomarker response observed in pharmacology studies in Peca−/−(A138T) mice. Specifically, at the minimum efficacious dose level of 0.5 mg/kg, decreases in plasma disease biomarkers were sustained for 3 weeks before rebounding toward pretreatment levels in propionic acidemia mice. The potential for drug product accumulation is considered low, with the planned clinical dosing regimen based on the kinetics of the components of the drug product.

half-life: 54.4 h
SMILES: CCCCCCCCCOC(=O)CCCCCCCN(CCO)CCCCCCCC(=O)OC(CCCCCCCC)CCCCCCCC [Compound II]
